Test results taken from ChEMBL document CHEMBL4422644, “Synthesis and evaluation of α-aminoacyl amides as antitubercular agents effective on drug resistant tuberculosis” (Eur J Med Chem, 2019).
Converted amounts (≈) assume the structure as drawn.

How the values were obtained:
Format in all cases: functional
[1] = system: Mycobacterium tuberculosis; test: Antitubercular activity against multidrug-resistant Mycobacterium tuberculosis isolate 7 after 7 days; conditions: isolate 7, 168 h
[2] = system: Mycobacterium tuberculosis; test: Antitubercular activity against multidrug-resistant Mycobacterium tuberculosis isolate 3 after 7 days; conditions: isolate 3, 168 h
[3] = system: Mycobacterium tuberculosis; test: Antitubercular activity against multidrug-resistant Mycobacterium tuberculosis isolate 4 after 7 days; conditions: isolate 4, 168 h
[4] = system: Mycobacterium tuberculosis; test: Antitubercular activity against isoniazid/ethionamide resistant Mycobacterium tuberculosis isolate 2 after 7 days; conditions: isolate 2, 168 h
[5] = system: Mycobacterium tuberculosis; test: Antitubercular activity against isoniazid/ethionamide resistant Mycobacterium tuberculosis isolate 1 after 7 days; conditions: isolate 1, 168 h
[6] = system: Mycobacterium tuberculosis; test: Antitubercular activity against multidrug-resistant Mycobacterium tuberculosis isolate 6 after 7 days; conditions: isolate 6, 168 h
[7] = system: Mycobacterium tuberculosis; test: Antitubercular activity against isoniazid/rifampicin resistant Mycobacterium tuberculosis isolate 5 after 7 days; conditions: isolate 5, 168 h
[8] = system: Mycobacterium tuberculosis; test: Antitubercular activity against multidrug-resistant Mycobacterium tuberculosis isolate 8 after 7 days; conditions: isolate 8, 168 h

SMILES	MIC [1]	MIC [2]	MIC [3]	MIC [4]	MIC [5]	MIC [6]	MIC [7]	MIC [8]
Cc1nc(C)c(C(=O)N(c2cccc(C)c2C)C(C(=O)NC2CCCCC2)c2cccnc2)s1 (stereo not drawn)	2 mg/L (≈ 4.2 µM)	1 mg/L (≈ 2.1 µM)	2 mg/L (≈ 4.2 µM)	1 mg/L (≈ 2.1 µM)	4 mg/L (≈ 8.39 µM)	8 mg/L (≈ 16.8 µM)	2 mg/L (≈ 4.2 µM)	8 mg/L (≈ 16.8 µM)
CC[C@@H](CO)NCCN[C@@H](CC)CO [ETHAMBUTOL]	8 mg/L (≈ 39.2 µM)	4 mg/L (≈ 19.6 µM)	8 mg/L (≈ 39.2 µM)	4 mg/L (≈ 19.6 µM)	2 mg/L (≈ 9.79 µM)	4 mg/L (≈ 19.6 µM)	–	> 8 mg/L
NNC(=O)c1ccncc1 [ISONIAZID]	5 mg/L (≈ 36.5 µM)	> 0.2 mg/L	> 5 mg/L	> 0.2 mg/L	5 mg/L (≈ 36.5 µM)	> 5 mg/L	5 mg/L (≈ 36.5 µM)	5 mg/L (≈ 36.5 µM)
NC[C@H]1O[C@H](O[C@H]2[C@H](O)[C@@H](O[C@H]3O[C@H](CO)[C@@H](O)[C@H](N)[C@H]3O)[C@H](N)C[C@@H]2N)[C@H](O)[C@@H](O)[C@@H]1O [KANAMYCIN]	8 mg/L (≈ 16.5 µM)	32 mg/L (≈ 66 µM)	8 mg/L (≈ 16.5 µM)	32 mg/L (≈ 66 µM)	16 mg/L (≈ 33 µM)	8 mg/L (≈ 16.5 µM)	–	16 mg/L (≈ 33 µM)
CO[C@H]1/C=C/O[C@@]2(C)Oc3c(C)c(O)c4c(O)c(c(/C=N/N5CCN(C)CC5)c(O)c4c3C2=O)NC(=O)/C(C)=C\C=C\[C@H](C)[C@H](O)[C@@H](C)[C@@H](O)[C@@H](C)[C@H](OC(C)=O)[C@@H]1C [RIFAMPIN]	> 128 mg/L	64 mg/L (≈ 77.8 µM)	32 mg/L (≈ 38.9 µM)	4 mg/L (≈ 4.86 µM)	32 mg/L (≈ 38.9 µM)	128 mg/L (≈ 156 µM)	128 mg/L (≈ 156 µM)	> 128 mg/L
